Measured values published in patent US8629293B2, “Process for the preparation of FE(III) chelates of N,N′-DI(2-hydroxybenzyl)-ethylenediamine-N,N′-diacetic acid and its derivatives” (Przedsiebiorstwo Produkcyjno-Consultingowe Adob SP. Z O.O. …, priority 2009, dated 2014).

Columns and labels:
[1] = tested on: 10-year old nectarine trees, cultivar "Zephyr" grafted on the GF677 root stock; experiment: Field test, testing field No. 1: SPAD index; format: in vivo
Procedure: (§1) The comparison included two chelate agents for supplementing iron deficiencies: HBED/Fe^3+ as well as the commercially available, highly purified EDDHA/Fe^3+. The studies were carried out on two fields with the soil having an alkaline pH as well as a high concentration of calcium ions. The chelates were applied directly to the soil by means of a dripper immersed in the soil.
10-year old nectarine trees, cultivar “Zephyr” grafted on the GF677 root stock
The chelates were applied at the following concentrations: • EDDHA/Fe^3+: high concentration (0.9 g of the chelated Fe/tree) • HBED/Fe^3+: low concentration (0.45 g of the chelated Fe/tree) • HBED/Fe^3+: high concentration (0.9 g of the chelated Fe/tree) • control trial: without Fe
The chelate solutions of various concentrations were applied in three portions (50%, 30%, and finally 20% of the whole dose, respectively) directly to the ground below the dripper.
The SPAD index was measured approximately every two weeks: on day 14, 29, 44, 61, 88 and 99 after application of the chelates.

[2] = tested on: 7-year old trees of flat peach (Prunus persica var. platycarpa) grafted on the GF677 root stock with visible symptoms of chlorosis; experiment: Field test, testing field No. 2: SPAD index of leaves; format: in vivo; conditions: for ΔSPAD index of leaves: 0.9 g of the chelated Fe/tree
Procedure: as §1
7-year old trees of flat peach (Prunus persica var. platycarpa) grafted on the GF677 root stock with visible symptoms of chlorosis
The chelates were applied at the following concentrations: • EDDHA/Fe^3+: high concentration (0.9 g of the chelated Fe/tree) • HBED/Fe^3+: high concentration (0.9 g of the chelated Fe/tree) • control trial: without Fe
The chelate solutions were dosed directly to the ground below the dripper. In this case, the whole dose of the chelates were applied in one portion. The symptoms of chlorosis were visible at the beginning of the experiment.
The samples for determination of the SPAD index of leaves were taken approximately every two weeks (on day 0, 20, 40 and 63 after application of the chelates).

[3] = 0.45 g of the chelated Fe/tree, day 14 after application
[4] = 0.45 g of the chelated Fe/tree, day 29 after application
[5] = 0.45 g of the chelated Fe/tree, day 44 after application
[6] = 0.45 g of the chelated Fe/tree, day 61 after application
[7] = 0.45 g of the chelated Fe/tree, day 88 after application
[8] = 0.45 g of the chelated Fe/tree, day 99 after application
[9] = 0.9 g of the chelated Fe/tree, day 14 after application
[10] = 0.9 g of the chelated Fe/tree, day 29 after application
[11] = 0.9 g of the chelated Fe/tree, day 44 after application
[12] = 0.9 g of the chelated Fe/tree, day 61 after application
[13] = 0.9 g of the chelated Fe/tree, day 88 after application
[14] = 0.9 g of the chelated Fe/tree, day 99 after application

In the case of `O=C([O-])CN(CCN(CC(=O)[O-])Cc1ccccc1[O-])Cc1ccccc1[O-].[Fe+3].[Na+]` [HBED/Fe^3+], the “The SPAD index of the fructifying branches” value [1, 3] is reported as 36.46, the “The SPAD index of the non-fructifying branches” value [1, 3] is reported as 34.39 and the “The SPAD index of the fructifying branches” value [1, 4] is reported as 37.82. The “The SPAD index of the non-fructifying branches” value [1, 4] was 36.46, the “The SPAD index of the fructifying branches” value [1, 5] was 37.09 and the “The SPAD index of the non-fructifying branches” value [1, 5] was 34.46. For the same compound, the “The SPAD index of the fructifying branches” value [1, 6] was 36.54, the “The SPAD index of the non-fructifying branches” value [1, 6] was 34.69 and the “The SPAD index of the fructifying branches” value [1, 7] was 38.64. For the same compound, the “The SPAD index of the non-fructifying branches” value [1, 7] was 37.46, the “The SPAD index of the fructifying branches” value [1, 8] was 37.36 and the “The SPAD index of the non-fructifying branches” value [1, 8] was 36.54. For the same compound, the “The SPAD index of the fructifying branches” value [1, 9] was 35.45, the “The SPAD index of the non-fructifying branches” value [1, 9] was 35.69 and the “The SPAD index of the fructifying branches” value [1, 10] was 37.91. The “The SPAD index of the non-fructifying branches” value [1, 10] was 35.77, the “The SPAD index of the fructifying branches” value [1, 11] was 37.27 and the “The SPAD index of the non-fructifying branches” value [1, 11] was 36.54. The “The SPAD index of the fructifying branches” value [1, 12] was 37.64, the “The SPAD index of the non-fructifying branches” value [1, 12] was 33.69 and the “The SPAD index of the fructifying branches” value [1, 13] was 39.73. The “The SPAD index of the non-fructifying branches” value [1, 13] was 39.00, the “The SPAD index of the fructifying branches” value [1, 14] was 37.27 and the “The SPAD index of the non-fructifying branches” value [1, 14] was 37.46. For the same compound, the “SPAD index values compared with EDDHA/Fe3+” value ([1]; fructifying and non-fructifying branches, Tables 3 and 4) was “comparable”, the “Effect on symptoms of chlorosis” value ([1]; testing field No. 1) was “effectively reduces the symptoms of chlorosis” and the “ΔSPAD index of leaves” value ([2]; day 0 after application) was 0. For the same compound, the “ΔSPAD index of leaves” value ([2]; day 20 after application) was 11.50, the “ΔSPAD index of leaves” value ([2]; day 40 after application) was 16.75 and the “ΔSPAD index of leaves” value ([2]; day 63 after application) was 16.23. For the same compound, the “ΔSPAD index compared with EDDHA/Fe3+” value ([2]; Table 5) was “does not show any significant differences” and the “Use against iron deficiencies” value ([2]; soils of alkaline pH and high concentration of calcium ions) was “may be successfully used against iron deficiencies”.
